Measurements: patent publication EP0878193A1, “REMEDIES FOR HERPESVIRUS INFECTION CAUSED BY HERPESVIRUS AND PREVENTIVES FOR RECURRENCE OF THE INFECTION BOTH CONTAINING TRITERPENE DERIVATIVES AS THE ACTIVE INGREDIENT” (Showa Shell Sekiyu K.K., priority 1996, dated 1997)

Key:
[1] = toxicity test in non-infected mice; assay type: in vivo
Protocol: Next, in order to examine toxicity of moronic acid, a toxicity test was carried out by administering control (water only) or 1 mg, 5 mg or 10 mg per kg mouse body weight of 3-oxo-olean-18-en-28-oic acid (moronic acid) to mice which have not been infected with viruses. Mice having a weight of 18 to 21 g/animal just before the commencement of the test were used in five animals per group. None of the mice died before completion of the test. 3-Oxo-olean-18-en-28-oic acid (moronic acid) was orally administered every day and three times a day.

[2] = test system: Vero cells; assay: cytotoxicity (observation, no method given); conditions: at the concentration by which it showed anti-herpesvirus activity
[3] = test system: HSV-1, AP^r1, TK^-, HSV-2; assay: viral growth inhibition activity, plaque forming unit (PFU/mℓ) as index, 24 hours culture; assay type: cell-based, herpes simplex virus; conditions: 5, 10 or 20 µg/mℓ compared with the control (water); also drug-resistant strains AP^r and TK^-; Table 2 is an image
Protocol: Next, the viral growth inhibition activity was measured in the following manner making use of a plaque forming unit (PFU/mℓ) as an index. That is, each of the above-described viral strains was adsorbed to Vero cells which have been cultured into monolayer in a plastic dish of 60 mm in diameter, and the resulting cells were supplemented with 2% fetal bovine serum-added MEM medium (3 mℓ) and 3-oxo-olean-18-en-28-oic acid solution (1 mℓ) having varied concentration and cultured at 37°C for 24 hours. After 24 hours, the thus infected cells were subjected to three times of freezing-thawing and then to centrifugation (3,000 rpm, 15 minutes), and the resulting supernatant fluid was used as a virus solution to count the number of infectious viruses by the above-described plaque formation test and to calculate the plaque forming unit (PFU/mℓ) based on the counts.

[4] = test system: AP^r1; assay: viral DNA synthesis, slot-blot hybridization with radiation-labeled probe in Vero cells; assay type: cell-based; conditions: 0, 5, 10 or 20 µg/mℓ, even at 20 µg/mℓ, Fig. 2
Protocol: (§1) Finally, in order to examine effects of moronic acid on the viral synthesis ability, the amount of virus particles in cultured cells was measured by the slot-blot hybridization described in J. Traditional Med., 12, 187 - 194 (1995). Using a radiation-labeled probe, viral DNA synthesis ability of herpesvirus strains HSV-1 and AP^r1 was measured just after adsorption of the viruses to animal cells (Vero cells) or when concentration of 3-oxo-olean-18-en-28-oic acid (moronic acid) was changed (0, 5, 10 or 20 µg/mℓ), with the results shown as a chart in Fig. 2 (photograph).
(§2) In Fig. 2, rough amounts of each herpesvirus are shown by the strength of black parts. For the sake of comparison, DNA copy number of a virus TK^- is shown on the right-side column as a reference strength.

[5] = test system: HSV-1; assay: amount of virus in skin and brain of mice infected with HSV-1 (plaque assay of tissue homogenates); assay type: in vivo; conditions: for Skin/brain (ratio): ratio of the percentages of skin and brain
Protocol: Next, effects of 3-oxo-olean-18-en-28-oic acid (moronic acid) against a virus in the animal body were examined by infecting skin cell tissues of mice with the viral strain HSV-1 and measuring the amount of the virus particles remained in the affected part of the skin and those migrated from the skin into intracerebral nerve cells 2, 3, 4 and 6 days after the infection, when a control (water only) or a varied amount of 3-oxo-olean-18-en-28-oic acid (moronic acid) was administered to the mice. In each of the experiments 1 and 2, three mice were used in one group and the average number of virus particles obtained from each mouse was used as the amount of virus. The amount of virus was measured by cutting off an area of 1 cm^2 around the affected part in the case of the skin or using the entire brain portion in the case of the brain. Each of the tissue samples was mixed with 2 mℓ of physiological saline and homogenated, the supernatant fluid obtained therefrom was used as a virus test solution to carry out a plaque assay (plaque measuring method) using cultured Vero cells, and the number of plaques thus counted was used as the amount of virus. The skin/brain ratio is a value calculated as the ratio of respective percentages obtained from the skin and the brain.
With regard to the numeral in ( ) such as (100%), (65.4%) or the like shown in the item of the amount of virus, the amount of virus in the control was defined as 100% and shown as (100%), the ratio of residual virus particles when 10 mg/kg of moronic acid was administered was 65.4% so that it was shown as (65.4%), and other numerals in ( ) under respective data were shown in the same manner.

[6] = test system: HSV-1; assay: viral DNA synthesis, slot-blot hybridization with radiation-labeled probe in Vero cells; assay type: cell-based, herpes simplex virus type 1 (strain 7401 H); conditions: HSV-1 in Vero cells; 0, 5, 10 or 20 µg/mℓ; even at 20 µg/mℓ; Fig. 2
Protocol: as §1, §2

[7] = Exp. 1, 1 mg/kg orally every day, three times a day, non-infected mice, five per group
[8] = Exp. 1, 2 days after infection, 10 mg/kg
[9] = Exp. 1, 4 days after infection, 1 mg/kg
[10] = Exp. 1, 4 days after infection, 10 mg/kg
[11] = Exp. 1, 6 days after infection, 1 mg/kg
[12] = Exp. 1, 6 days after infection, 10 mg/kg
[13] = Exp. 2, 3 days after infection, 1 mg/kg
[14] = Exp. 2, 3 days after infection, 5 mg/kg
[15] = Exp. 2, 6 days after infection, 1 mg/kg
[16] = Exp. 2, 6 days after infection, 5 mg/kg

CC1(C)C=C2[C@H]3CC[C@@H]4[C@@]5(C)CCC(=O)C(C)(C)[C@@H]5CC[C@@]4(C)[C@]3(C)CC[C@@]2(C(=O)O)CC1 [Moronic acid, 3-oxo-olean-18-en-28-oic acid]
Death rate ([1]; Exp. 1, 1 mg/kg orally every day, three times a day, non-infected mice): 0/5
(Average body weight ± standard deviation) Administration period 7 days [1, 7]: 19.8 ± 1.4
(Average body weight ± standard deviation) Administration period 36 days [1, 7]: 22.6 ± 0.8
Death rate ([1]; Exp. 1, 5 mg/kg orally every day, three times a day, non-infected mice): 0/5
Death rate ([1]; Exp. 2, 10 mg/kg orally every day, three times a day, non-infected mice): 0/5
deaths of mice ([1]; even at the maximum concentration of 10 mg/kg, after the lapse of time of 25 days): none of the five mice died
(Average body weight ± standard deviation) Administration period 7 days ([1]; mouse, in vivo, po, 5 mg/kg): 19.9 ± 1.4
(Average body weight ± standard deviation) Administration period 36 days ([1]; mouse, in vivo, po, 5 mg/kg): 21.0 ± 0.8
(Average body weight ± standard deviation) Administration period 7 days ([1]; mouse, in vivo, po, 10 mg/kg): 20.1 ± 1.2
(Average body weight ± standard deviation) Administration period 21 days ([1]; mouse, in vivo, po, 10 mg/kg): 20.4 ± 1.0
cytotoxicity [2]: not observed
ratio of plaques formed by each viral strain [3]: decreases
effect to inhibit virus DNA synthesis [4]: not found
Amount of virus (average ± standard deviation, PFU/organ) Skin [5, 8]: 4.9 ± 0.0 (log10 PFU)/cm^2
Amount of virus Skin, relative to control defined as 100% [5, 8]: 91.2%
Amount of virus (average ± standard deviation, PFU/organ) Brain [5, 9]: < 2.4 ± 0.0 (log10 PFU)/total
Amount of virus (average ± standard deviation, PFU/organ) Skin [5, 9]: 6.1 ± 0.4 (log10 PFU)/cm^2
Amount of virus Brain, relative to control defined as 100% [5, 9]: < 83.9%
Amount of virus Skin, relative to control defined as 100% [5, 9]: 93.5%
Skin/brain (ratio) [5, 9]: >1.12
Amount of virus (average ± standard deviation, PFU/organ) Brain [5, 10]: < 2.40 ± 0.0 (log10 PFU)/total
Amount of virus (average ± standard deviation, PFU/organ) Skin [5, 10]: 6.3 ± 0.3 (log10 PFU)/cm^2
Amount of virus Brain, relative to control defined as 100% [5, 10]: < 83.9%
Amount of virus Skin, relative to control defined as 100% [5, 10]: 96.3%
Skin/brain (ratio) [5, 10]: >1.15
Amount of virus (average ± standard deviation, PFU/organ) Brain [5, 11]: 3.5 ± 0.4 (log10 PFU)/total
Amount of virus (average ± standard deviation, PFU/organ) Skin [5, 11]: 6.1 ± 0.2 (log10 PFU)/cm^2
Amount of virus Brain, relative to control defined as 100% [5, 11]: 85.6%
Amount of virus Skin, relative to control defined as 100% [5, 11]: 95.3%
Skin/brain (ratio) [5, 11]: 1.12
Amount of virus (average ± standard deviation, PFU/organ) Brain [5, 12]: 2.3 ± 0.3 (log10 PFU)/total
Amount of virus (average ± standard deviation, PFU/organ) Skin [5, 12]: 6.0 ± 0.1 (log10 PFU)/cm^2
Amount of virus Brain, relative to control defined as 100% [5, 12]: 57.0%
Amount of virus Skin, relative to control defined as 100% [5, 12]: 94.2%
Skin/brain (ratio) [5, 12]: 1.674
Amount of virus (average ± standard deviation, PFU/organ) Skin [5, 13]: 5.5 ± 0.4 (log10 PFU)/cm^2
Amount of virus Skin, relative to control defined as 100% [5, 13]: 98.2%
Amount of virus (average ± standard deviation, PFU/organ) Skin [5, 14]: 5.1 ± 0.4 (log10 PFU)/cm^2
Amount of virus Skin, relative to control defined as 100% [5, 14]: 91.5%
Amount of virus (average ± standard deviation, PFU/organ) Brain [5, 15]: 3.0 ± 0.6 (log10 PFU)/total
Amount of virus (average ± standard deviation, PFU/organ) Skin [5, 15]: 4.8 ± 0.7 (log10 PFU)/cm^2
Amount of virus Brain, relative to control defined as 100% [5, 15]: 80.7%
Amount of virus Skin, relative to control defined as 100% [5, 15]: 93.9%
Skin/brain (ratio) [5, 15]: 1.16
Amount of virus (average ± standard deviation, PFU/organ) Brain [5, 16]: 2.7 ± 0.3 (log10 PFU)/total
Amount of virus (average ± standard deviation, PFU/organ) Skin [5, 16]: 5.6 ± 0.2 (log10 PFU)/cm^2
Amount of virus Brain, relative to control defined as 100% [5, 16]: 72.2%
Amount of virus Skin, relative to control defined as 100% [5, 16]: 109.0%
Skin/brain (ratio) [5, 16]: 31.9
effect to inhibit virus DNA synthesis [6]: not found
